Measured values as given in article PMC11397024, “Strategic Fluorination to Achieve a Potent, Selective, Metabolically Stable, and Orally Bioavailable Inhibitor of CSNK2” (Molecules, 2024).

Experiments:
Assay in all cases: NanoBRET K192
Format in all cases: cell-based
Conditions in all cases: HEK293
AURKC = biological target: T1, AURKC (Homo sapiens, UniProt Q9UQB9)
T1 construct: purchased Promega (NanoBRET Target Engagement K192 Kinase Selectivity System)
Method: (§1) The K192 selectivity assay was run according to the Draft Promega technical manual, NanoBRET^TM Target Engagement K192 Kinase Selectivity System. Reagents were supplied by Promega (Promega NP 4101). For the assay, DNA from the prepared kinase vector panel plates A and B were mixed with Fugene in 96-well plates (Corning 3917) and incubated at room temperature for 30 min. The NanoLuc® Low control vector pNL1.1.CMV [Nluc/CMV] Vector (Cat.# N1091) and the transfection control vector NanoLuc®-HIPK2 Fusion Vector (Cat.# NV3221) were used as controls.
(§2) HEK293 cells were grown to 75–95% confluency in DMEM (Gibco 11995-065) supplemented with FBS (Avantor 97068-085) at 37 °C in […]. On the first day of the assay, cells were harvested and resuspended in Opti-MEM (Gibco 11058-021) supplemented with 1% FBS (Avantor 97068-085) at 2.5 × 10^5 cells per mL. A volume of 60 μL of cell suspension was mixed with 10 μL of prepared DNA (10X concentration) and 30 μL of Fugene (30 μL/mL in Opti-MEM) as outlined by Promega and incubated overnight at 37 °C in a 5% CO2 incubator.
(§3) On day two of the assay, 5 μL of 20X K10 tracer was prepared and added at concentrations recommended by Promega. Then, 10 μL of test compounds at 100 μM in Opti-MEM (diluted from a 10 mM solution in DMSO) was added to the test wells while an equivalent volume of Opti-MEM was added to the high-control wells. Plates were kept at 37 °C in a 5% CO2 incubator for two hours. After two hours, plates were allowed to equilibrate to room temperature for 15 min. A solution of 3X Complete Substrate plus Inhibitor Solution was freshly prepared, consisting of a 1:166 dilution of NanoBRET™ Nano-Glo® Substrate plus a 1:500 dilution of Extracellular NanoLuc® Inhibitor in Opti-MEM® medium without serum or phenol red. A 50 μL volume of the 3X Complete Substrate plus Inhibitor Solution was added to each assay well, including control wells. After 2–3 min, the plate was shaken at 300 RPM for 10 s, and the donor emission wavelength (450 nm) and acceptor emission wavelength (610 nm) were measured using the Glomax® Discover System.
(§4) As a quality check, the donor signal-to-background ratio was calculated for each individual kinase by dividing the mean donor signal for each kinase by the mean donor signal for the signal-to-background control wells. Fractional occupancy of the test drug for each kinase was determined using the following formula:Occupancy (%) = [1 − (Sample − Bottom)/(Top − Bottom)] × 100 where

CDK1 + B1 = biological target: T2, CDK1 + B1 (Homo sapiens, UniProt P06493)
T2 construct: purchased Promega (NanoBRET Target Engagement K192 Kinase Selectivity System)
Method: as §1, §2, §3, §4

CDKL3 = biological target: T3, CDKL3 (Homo sapiens, UniProt Q8IVW4)
T3 construct: purchased Promega (NanoBRET Target Engagement K192 Kinase Selectivity System)
Method: as §1, §2, §3, §4

CDKL5 = biological target: T4, CDKL5 (Homo sapiens, UniProt O76039)
T4 construct: purchased Promega (NanoBRET Target Engagement K192 Kinase Selectivity System)
Method: as §1, §2, §3, §4

EPHA6 = biological target: T5, EPHA6 (Homo sapiens, UniProt Q9UF33)
T5 construct: purchased Promega (NanoBRET Target Engagement K192 Kinase Selectivity System)
Method: as §1, §2, §3, §4

EPHB1 = biological target: T6, EPHB1 (Homo sapiens, UniProt P54762)
T6 construct: purchased Promega (NanoBRET Target Engagement K192 Kinase Selectivity System)
Method: as §1, §2, §3, §4

FER = biological target: T7, FER (Homo sapiens, UniProt P16591)
T7 construct: purchased Promega (NanoBRET Target Engagement K192 Kinase Selectivity System)
Method: as §1, §2, §3, §4

GAK = biological target: T8, GAK (Homo sapiens, UniProt O14976)
T8 construct: purchased Promega (NanoBRET Target Engagement K192 Kinase Selectivity System)
Method: as §1, §2, §3, §4

HIPK4 = biological target: T9, HIPK4 (Homo sapiens, UniProt Q8NE63)
T9 construct: purchased Promega (NanoBRET Target Engagement K192 Kinase Selectivity System)
Method: as §1, §2, §3, §4

LATS2 = biological target: T10, LATS2 (Homo sapiens, UniProt Q9NRM7)
T10 construct: purchased Promega (NanoBRET Target Engagement K192 Kinase Selectivity System)
Method: as §1, §2, §3, §4

LTK = biological target: T11, LTK (Homo sapiens, UniProt P29376)
T11 construct: purchased Promega (NanoBRET Target Engagement K192 Kinase Selectivity System)
Method: as §1, §2, §3, §4

MAP3K12 = biological target: T12, MAP3K12 (Homo sapiens, UniProt Q12852)
T12 construct: purchased Promega (NanoBRET Target Engagement K192 Kinase Selectivity System)
Method: as §1, §2, §3, §4

MAP4K2 = biological target: T13, MAP4K2 (Homo sapiens, UniProt Q12851)
T13 construct: purchased Promega (NanoBRET Target Engagement K192 Kinase Selectivity System)
Method: as §1, §2, §3, §4

MAP4K3 = biological target: T14, MAP4K3 (Homo sapiens, UniProt Q8IVH8)
T14 construct: purchased Promega (NanoBRET Target Engagement K192 Kinase Selectivity System)
Method: as §1, §2, §3, §4

MAPK6 = biological target: T15, MAPK6 (Homo sapiens, UniProt Q16659)
T15 construct: purchased Promega (NanoBRET Target Engagement K192 Kinase Selectivity System)
Method: as §1, §2, §3, §4

MAPK9 = biological target: T16, MAPK9 (Homo sapiens, UniProt P45984)
T16 construct: purchased Promega (NanoBRET Target Engagement K192 Kinase Selectivity System)
Method: as §1, §2, §3, §4

MARK4 = biological target: T17, MARK4 (Homo sapiens, UniProt Q96L34)
T17 construct: purchased Promega (NanoBRET Target Engagement K192 Kinase Selectivity System)
Method: as §1, §2, §3, §4

NEK1 = biological target: T18, NEK1 (Homo sapiens, UniProt Q96PY6)
T18 construct: purchased Promega (NanoBRET Target Engagement K192 Kinase Selectivity System)
Method: as §1, §2, §3, §4

NEK2 = biological target: T19, NEK2 (Homo sapiens, UniProt P51955)
T19 construct: purchased Promega (NanoBRET Target Engagement K192 Kinase Selectivity System)
Method: as §1, §2, §3, §4

NIM1K = biological target: T20, NIM1K (Homo sapiens, UniProt Q8IY84)
T20 construct: host or cells: HEK293
Method: as §1, §2, §3, §4

PRKX = biological target: T21, PRKX (Homo sapiens, UniProt P51817)
T21 construct: purchased Promega (NanoBRET Target Engagement K192 Kinase Selectivity System)
Method: as §1, §2, §3, §4

RET = biological target: T22, RET (Homo sapiens, UniProt P07949)
T22 construct: purchased Promega (NanoBRET Target Engagement K192 Kinase Selectivity System)
Method: as §1, §2, §3, §4

RON = biological target: T23, RON (Homo sapiens, UniProt Q04912)
T23 construct: purchased Promega (NanoBRET Target Engagement K192 Kinase Selectivity System)
Method: as §1, §2, §3, §4

SNF1LK2 = biological target: T24, SNF1LK2 (Homo sapiens, UniProt Q9H0K1)
T24 construct: host or cells: HEK293
Method: as §1, §2, §3, §4

SNRK = biological target: T25, SNRK (Homo sapiens, UniProt Q9NRH2)
T25 construct: host or cells: HEK293
Method: as §1, §2, §3, §4

SRMS = biological target: T26, SRMS (Homo sapiens, UniProt Q9H3Y6)
T26 construct: purchased Promega (NanoBRET Target Engagement K192 Kinase Selectivity System)
Method: as §1, §2, §3, §4

STK3 = biological target: T27, STK3 (Homo sapiens, UniProt Q13188)
T27 construct: purchased Promega (NanoBRET Target Engagement K192 Kinase Selectivity System)
Method: as §1, §2, §3, §4

TLK2 = biological target: T28, TLK2 (Homo sapiens, UniProt Q86UE8)
T28 construct: purchased Promega (NanoBRET Target Engagement K192 Kinase Selectivity System)
Method: as §1, §2, §3, §4

TYRO3 = biological target: T29, TYRO3 (Homo sapiens, UniProt Q06418)
T29 construct: purchased Promega (NanoBRET Target Engagement K192 Kinase Selectivity System)
Method: as §1, §2, §3, §4

T23 sequence (Q04912 25-1400): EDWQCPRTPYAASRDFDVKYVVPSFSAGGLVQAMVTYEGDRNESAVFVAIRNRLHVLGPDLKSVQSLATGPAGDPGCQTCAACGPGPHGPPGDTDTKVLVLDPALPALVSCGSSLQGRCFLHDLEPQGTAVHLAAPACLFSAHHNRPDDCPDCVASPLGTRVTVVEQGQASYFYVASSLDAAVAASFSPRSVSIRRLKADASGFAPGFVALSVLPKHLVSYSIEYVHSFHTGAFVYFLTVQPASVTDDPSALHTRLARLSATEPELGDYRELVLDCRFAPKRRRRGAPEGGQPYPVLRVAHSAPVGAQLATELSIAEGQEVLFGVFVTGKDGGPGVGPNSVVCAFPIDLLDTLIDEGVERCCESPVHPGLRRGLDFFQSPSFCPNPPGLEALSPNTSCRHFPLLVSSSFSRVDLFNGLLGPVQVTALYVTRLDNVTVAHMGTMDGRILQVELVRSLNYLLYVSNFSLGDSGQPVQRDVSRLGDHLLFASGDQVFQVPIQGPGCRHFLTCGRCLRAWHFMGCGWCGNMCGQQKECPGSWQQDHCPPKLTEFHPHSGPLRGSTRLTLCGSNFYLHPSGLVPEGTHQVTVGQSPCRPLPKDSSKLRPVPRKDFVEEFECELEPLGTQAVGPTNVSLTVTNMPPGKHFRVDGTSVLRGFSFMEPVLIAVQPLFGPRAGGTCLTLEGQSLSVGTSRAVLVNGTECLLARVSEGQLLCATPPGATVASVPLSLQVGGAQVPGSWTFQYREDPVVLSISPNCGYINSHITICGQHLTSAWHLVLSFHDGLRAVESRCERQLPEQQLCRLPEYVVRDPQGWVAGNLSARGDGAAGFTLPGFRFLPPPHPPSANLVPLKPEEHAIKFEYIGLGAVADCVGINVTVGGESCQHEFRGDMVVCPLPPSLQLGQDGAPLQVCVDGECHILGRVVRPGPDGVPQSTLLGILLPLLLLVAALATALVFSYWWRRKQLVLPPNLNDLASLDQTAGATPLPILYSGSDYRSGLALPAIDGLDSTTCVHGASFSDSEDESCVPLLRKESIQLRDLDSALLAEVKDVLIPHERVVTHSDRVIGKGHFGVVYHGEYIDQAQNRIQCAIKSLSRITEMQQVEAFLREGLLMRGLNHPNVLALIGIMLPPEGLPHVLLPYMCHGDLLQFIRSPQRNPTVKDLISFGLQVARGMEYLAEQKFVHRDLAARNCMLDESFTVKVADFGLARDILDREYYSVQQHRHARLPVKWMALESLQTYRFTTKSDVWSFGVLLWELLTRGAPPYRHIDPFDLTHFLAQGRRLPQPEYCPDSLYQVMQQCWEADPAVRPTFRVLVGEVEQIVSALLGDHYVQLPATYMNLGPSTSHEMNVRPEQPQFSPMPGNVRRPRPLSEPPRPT
T21 sequence (P51817 whole entry): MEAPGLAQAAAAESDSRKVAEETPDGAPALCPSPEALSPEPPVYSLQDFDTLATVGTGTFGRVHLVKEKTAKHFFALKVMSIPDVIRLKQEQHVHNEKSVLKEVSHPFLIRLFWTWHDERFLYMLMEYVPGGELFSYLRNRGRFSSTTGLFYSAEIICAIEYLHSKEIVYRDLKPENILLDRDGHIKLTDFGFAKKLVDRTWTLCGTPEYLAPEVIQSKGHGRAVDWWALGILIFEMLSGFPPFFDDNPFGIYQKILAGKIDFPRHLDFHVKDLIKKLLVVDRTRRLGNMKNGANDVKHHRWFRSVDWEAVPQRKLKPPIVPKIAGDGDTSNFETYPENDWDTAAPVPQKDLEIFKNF
T22 sequence (P07949 29-1114): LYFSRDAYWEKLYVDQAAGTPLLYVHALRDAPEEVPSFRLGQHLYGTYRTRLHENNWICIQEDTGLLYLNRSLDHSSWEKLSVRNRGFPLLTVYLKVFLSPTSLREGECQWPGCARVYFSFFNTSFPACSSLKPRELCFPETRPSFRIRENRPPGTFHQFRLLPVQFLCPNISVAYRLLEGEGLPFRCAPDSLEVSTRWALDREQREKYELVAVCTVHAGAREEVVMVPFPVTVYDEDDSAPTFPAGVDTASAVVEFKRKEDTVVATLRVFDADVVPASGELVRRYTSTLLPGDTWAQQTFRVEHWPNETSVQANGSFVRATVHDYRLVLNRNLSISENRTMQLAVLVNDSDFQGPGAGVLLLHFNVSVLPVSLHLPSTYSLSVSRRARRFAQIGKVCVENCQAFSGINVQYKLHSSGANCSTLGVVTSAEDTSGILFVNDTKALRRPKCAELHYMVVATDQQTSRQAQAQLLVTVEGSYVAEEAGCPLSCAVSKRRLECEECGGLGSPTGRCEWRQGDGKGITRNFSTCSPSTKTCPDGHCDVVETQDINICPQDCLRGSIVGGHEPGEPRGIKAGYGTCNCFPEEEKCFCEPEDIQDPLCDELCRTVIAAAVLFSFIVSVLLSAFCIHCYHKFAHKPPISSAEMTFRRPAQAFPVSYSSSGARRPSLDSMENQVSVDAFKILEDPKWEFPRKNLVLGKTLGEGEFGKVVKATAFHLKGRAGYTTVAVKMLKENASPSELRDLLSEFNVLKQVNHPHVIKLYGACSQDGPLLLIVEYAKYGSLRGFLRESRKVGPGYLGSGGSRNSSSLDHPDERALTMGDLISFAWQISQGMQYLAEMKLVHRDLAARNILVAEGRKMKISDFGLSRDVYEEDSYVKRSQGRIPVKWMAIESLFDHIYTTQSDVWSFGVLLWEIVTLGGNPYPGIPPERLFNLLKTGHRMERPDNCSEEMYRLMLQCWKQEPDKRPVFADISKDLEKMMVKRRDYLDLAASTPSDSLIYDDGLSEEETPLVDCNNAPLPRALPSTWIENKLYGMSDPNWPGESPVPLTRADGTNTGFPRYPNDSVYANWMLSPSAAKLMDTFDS
T11 sequence (P29376 17-864): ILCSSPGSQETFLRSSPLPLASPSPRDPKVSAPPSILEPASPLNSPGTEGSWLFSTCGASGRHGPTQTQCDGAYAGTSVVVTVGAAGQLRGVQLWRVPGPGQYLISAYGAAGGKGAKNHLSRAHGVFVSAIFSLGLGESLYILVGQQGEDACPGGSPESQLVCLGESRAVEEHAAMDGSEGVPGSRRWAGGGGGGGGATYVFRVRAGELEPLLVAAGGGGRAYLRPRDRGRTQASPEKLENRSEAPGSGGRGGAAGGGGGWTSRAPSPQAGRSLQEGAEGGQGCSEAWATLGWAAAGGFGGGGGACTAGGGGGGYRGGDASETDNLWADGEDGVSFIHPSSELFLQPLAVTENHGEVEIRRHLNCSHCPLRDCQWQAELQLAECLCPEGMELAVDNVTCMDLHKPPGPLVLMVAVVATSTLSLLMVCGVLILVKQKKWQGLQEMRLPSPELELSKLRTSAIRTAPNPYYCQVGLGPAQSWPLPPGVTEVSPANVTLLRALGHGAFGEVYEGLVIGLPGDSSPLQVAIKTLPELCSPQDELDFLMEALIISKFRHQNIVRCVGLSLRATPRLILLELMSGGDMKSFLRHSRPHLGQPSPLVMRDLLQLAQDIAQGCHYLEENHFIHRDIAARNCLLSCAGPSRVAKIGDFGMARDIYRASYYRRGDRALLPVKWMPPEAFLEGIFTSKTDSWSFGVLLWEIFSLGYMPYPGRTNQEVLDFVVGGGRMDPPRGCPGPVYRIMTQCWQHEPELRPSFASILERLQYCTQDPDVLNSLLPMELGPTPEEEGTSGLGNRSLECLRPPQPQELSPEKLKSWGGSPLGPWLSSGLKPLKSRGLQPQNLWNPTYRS
T25 sequence (Q9NRH2 whole entry): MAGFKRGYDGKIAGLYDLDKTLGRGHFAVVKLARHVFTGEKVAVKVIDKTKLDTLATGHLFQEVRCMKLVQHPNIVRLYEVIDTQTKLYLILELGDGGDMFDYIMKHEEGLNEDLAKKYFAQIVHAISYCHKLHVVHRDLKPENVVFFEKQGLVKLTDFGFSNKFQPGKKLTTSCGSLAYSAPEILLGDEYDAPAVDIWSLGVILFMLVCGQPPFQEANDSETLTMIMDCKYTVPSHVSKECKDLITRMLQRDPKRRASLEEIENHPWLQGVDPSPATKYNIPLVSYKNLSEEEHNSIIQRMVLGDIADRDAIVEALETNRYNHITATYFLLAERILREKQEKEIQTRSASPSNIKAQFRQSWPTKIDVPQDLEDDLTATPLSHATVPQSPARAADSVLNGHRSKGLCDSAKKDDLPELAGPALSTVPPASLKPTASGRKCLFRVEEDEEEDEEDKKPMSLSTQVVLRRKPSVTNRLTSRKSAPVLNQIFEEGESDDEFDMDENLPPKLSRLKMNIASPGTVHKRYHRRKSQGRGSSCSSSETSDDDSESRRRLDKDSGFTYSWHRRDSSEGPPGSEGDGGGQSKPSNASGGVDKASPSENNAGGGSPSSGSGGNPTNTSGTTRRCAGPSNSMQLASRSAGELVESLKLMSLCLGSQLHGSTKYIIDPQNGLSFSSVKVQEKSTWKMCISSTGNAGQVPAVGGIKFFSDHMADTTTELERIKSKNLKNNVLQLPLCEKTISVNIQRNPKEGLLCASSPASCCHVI
T1 sequence (Q9UQB9 whole entry): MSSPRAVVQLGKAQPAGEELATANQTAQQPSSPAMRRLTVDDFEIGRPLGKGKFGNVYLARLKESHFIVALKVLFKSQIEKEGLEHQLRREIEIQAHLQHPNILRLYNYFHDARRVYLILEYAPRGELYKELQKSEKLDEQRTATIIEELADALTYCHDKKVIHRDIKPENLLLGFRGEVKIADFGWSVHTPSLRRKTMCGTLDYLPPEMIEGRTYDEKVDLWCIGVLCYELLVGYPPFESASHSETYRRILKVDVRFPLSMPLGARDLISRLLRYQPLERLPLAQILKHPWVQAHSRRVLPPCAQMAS

**Q.** For `CCC(=O)Nc1cc(Nc2cc(NC3CC3)n3ncc(C#N)c3n2)c(F)cc1N1CCC[C@H](NC)C1` [Compound 2, (S)-N-(5-((3-cyano-7-(cyclopropylamino)pyrazolo[1,5-a]pyrimidin-5-yl)amino)-4-fluoro-2-(3-(methylamino)piperidin-1-yl)phenyl)propionamide], which receptor occupancy at 10 µM (AURKC) is on record?
**A.** The receptor occupancy at 10 µM was 4.5%.

**Q.** What about the receptor occupancy at 10 µM (CDK1 + B1) of the same molecule?
**A.** The receptor occupancy at 10 µM was 6.2%.

**Q.** What about the receptor occupancy at 10 µM (CDKL3) of the same molecule?
**A.** The receptor occupancy at 10 µM was 19.4%.

**Q.** And the receptor occupancy at 10 µM (CDKL5)?
**A.** The receptor occupancy at 10 µM was 17.2%.

**Q.** And the receptor occupancy at 10 µM (EPHA6)?
**A.** The receptor occupancy at 10 µM was 7.3%.

**Q.** What about the receptor occupancy at 10 µM (EPHB1) of the same molecule?
**A.** Its receptor occupancy at 10 µM is 4.7%.

**Q.** What about the receptor occupancy at 10 µM (FER) of the same molecule?
**A.** The receptor occupancy at 10 µM was 3.1%.

**Q.** What about the receptor occupancy at 10 µM (GAK) of the same molecule?
**A.** Its receptor occupancy at 10 µM is 3.3%.

**Q.** And the receptor occupancy at 10 µM (HIPK4)?
**A.** Its receptor occupancy at 10 µM is 39.9%.

**Q.** And the receptor occupancy at 10 µM (LATS2)?
**A.** Its receptor occupancy at 10 µM is 9.4%.

**Q.** What about the receptor occupancy at 10 µM (LTK) of the same molecule?
**A.** Its receptor occupancy at 10 µM is 4.2%.

**Q.** What about the receptor occupancy at 10 µM (MAP3K12) of the same molecule?
**A.** Its receptor occupancy at 10 µM is -0.1%.

**Q.** What about the receptor occupancy at 10 µM (MAP4K2) of the same molecule?
**A.** The receptor occupancy at 10 µM was 31.4%.

**Q.** And the receptor occupancy at 10 µM (MAP4K3)?
**A.** The receptor occupancy at 10 µM was 2.9%.

**Q.** And the receptor occupancy at 10 µM (MAPK6)?
**A.** The receptor occupancy at 10 µM was 14.6%.

**Q.** And the receptor occupancy at 10 µM (MAPK9)?
**A.** The receptor occupancy at 10 µM was 2.4%.

**Q.** And the receptor occupancy at 10 µM (MARK4)?
**A.** The receptor occupancy at 10 µM was 7.4%.

**Q.** And the receptor occupancy at 10 µM (NEK1)?
**A.** Its receptor occupancy at 10 µM is -1.9%.

**Q.** What about the receptor occupancy at 10 µM (NEK2) of the same molecule?
**A.** Its receptor occupancy at 10 µM is 4.2%.

**Q.** What about the receptor occupancy at 10 µM (NIM1K) of the same molecule?
**A.** Its receptor occupancy at 10 µM is -23.7%.

**Q.** And the receptor occupancy at 10 µM (PRKX)?
**A.** The receptor occupancy at 10 µM was 10.6%.

**Q.** What about the receptor occupancy at 10 µM (RET) of the same molecule?
**A.** Its receptor occupancy at 10 µM is 1.8%.

**Q.** What about the receptor occupancy at 10 µM (RON) of the same molecule?
**A.** Its receptor occupancy at 10 µM is 7.6%.

**Q.** And the receptor occupancy at 10 µM (SNF1LK2)?
**A.** Its receptor occupancy at 10 µM is -4.8%.

**Q.** What about the receptor occupancy at 10 µM (SNRK) of the same molecule?
**A.** The receptor occupancy at 10 µM was -2%.

**Q.** And the receptor occupancy at 10 µM (SRMS)?
**A.** Its receptor occupancy at 10 µM is 7.4%.

**Q.** What about the receptor occupancy at 10 µM (STK3) of the same molecule?
**A.** Its receptor occupancy at 10 µM is 5.2%.

**Q.** What about the receptor occupancy at 10 µM (TLK2) of the same molecule?
**A.** Its receptor occupancy at 10 µM is 4.6%.

**Q.** What about the receptor occupancy at 10 µM (TYRO3) of the same molecule?
**A.** Its receptor occupancy at 10 µM is 3.9%.
